From EP0261891A2, “Pharmaceutical compositions containing etiochiolandione” (Progenics, Inc., priority 1986, dated 1988)
Where “and” joins values, the source holds several entries; their conditions need not be identical. Equal values may be shown once.

How the values were obtained:
[1] = compared with DHEA; cited from earlier work
[2] = injection (i.m.) in man; cited from earlier work
[3] = Absorption and blood level profiles after oral suspensions, three-way crossover; serum alpha-ET by RIA; type: in vivo, human; conditions: 200 mg oral suspension, at 4 hours past administration
Experimental: Each subject received all three drugs in randomized order with a one-week wash-out period between doses. Following an overnight fast, subjects received 200 mg of test drug suspended in approximately 6 oz of apple juice. Blood samples were drawn immediately prior to drug administration and at 15 minutes, 30 minutes, 1, 2, 4, 8, 12 and 24 hours.

[4] = Weight gain, food consumption, fat pad and alpha-ET blood level in normal rats fed steroid in diet for three weeks; type: in vivo, Sprague-Dawley rats; conditions: for FOOD CONSUMPTION: 0.367% in diet (dose from method)
Experimental: All of the above considerations make ET-dione not only suitable but preferred in the treatment of diabetes, obesity and blood suppressive disorders such as aplastic anemia.
Food consumption and body weight were measured weekly. Blood samples were taken at the end of the study for assay of alpha-ET by RIA and measurement of serum total cholesterol, HDL-cholesterol and triglycerides. Liver weight (absolute and % of body weight), total cholesterol, % of esterified cholesterol and triglycerides in the liver were also determined. In addition, epididymal fat pad weights were measured.

[5] = Second study: body weight gain and food consumption in rats on higher-fat diet with steroid; type: in vivo, Sprague-Dawley rats; conditions: for FOOD CONSUMPTION: Av.Wks 1 - 4 (control 23.4)
Experimental: A second study was carried out on male Sprague-Dawley rats with initial starting weight of 272 ± 5 gms. […] On the last day of the study the animals were dosed with approximately 1 micro Ci of ^3H labeled material (Amersham) corresponding to the treatment they had received. Groups of three animals- were sacrificed at 1 hour, 4 hours and 12 hours after dosing, and the adrenals, gonads, liver, epididymal fat pads, and blood collected for analysis. Urine and feces were also collected during the post-tracer dosing period.

For `C[C@]12CC[C@H](O)C[C@H]1CC[C@@H]1[C@@H]2CC[C@]2(C)C(=O)CC[C@@H]12` [Beta-ET, 5-beta-androstan-3-beta-ol-17-one], the “effectiveness in preventing the development of diabetes” value [1] is given as “four times more effective than DHEA” and the pyrogenic effect [2] is given as “little pyrogenic effect”.

In the case of `C[C@]12CCC(=O)C[C@H]1CC[C@@H]1[C@@H]2CC[C@]2(C)C(=O)CC[C@@H]12` [ET-dione, 5-beta-androstanedione], the “free alpha-ET levels compared with alpha-ET or beta-ET administration” value [3] was “significantly higher”, the “% W vs Control Day 21” value ([4]; 0.367% in diet) was -16.6% and the “FOOD CONSUMPTION” value ([4]; Average, mean ± S.E. (control 25.6 ± 0.6), significantly different from control (p < 0.05)) was 23.4 ± 0.6 g/rat/day. The “FOOD CONSUMPTION” value ([4]; week 1, mean ± S.E. (control 26.8 ± 0.8)) was 23.0 ± 0.6 g/rat/day, the “FOOD CONSUMPTION” value ([4]; week 2, mean ± S.E. (control 24.9 ± 0.6)) was 24.6 ± 0.5 g/rat/day and the “FOOD CONSUMPTION” value ([4]; week 3, mean ± S.E. (control […] ± 0.6)) was 22.6 ± 0.5 g/rat/day. For the same compound, the “Weight” value ([4]; 0.367% in diet, Day 0, mean ± S.E.) was 260 ± 3 g, the “W(g) (weight gain)” value ([4]; 0.367% in diet, Day 7 (control 48)) was 38 g and the “Weight” value ([4]; 0.367% in diet, Day 7, mean ± S.E. (control 308 ± 5)) was 298 ± 2 g. The “W(g) (weight gain)” value ([4]; 0.367% in diet, Day 14 (control 94)) was 81 g, the “Weight” value ([4]; 0.367% in diet, Day 14, mean ± S.E. (control 354 ± 6)) was 341 ± 3 g and the “W(g) (weight gain)” value ([4]; 0.367% in diet, Day 21 (control 121), significantly different from control (p < .05)) was 101 g and 101+ g. For the same compound, the “Weight” value ([4]; 0.367% in diet, Day 21, mean ± S.E. (control 381 ± 7)) was 361 ± 3 g, the “Fat Pad as % of Body Wt” value ([4]; 0.367% in diet, three weeks (control 1.02 ± 0.08)) was 0.97 ± 0.07% and the “Fat Pad Wt” value ([4]; epididymal fat pad, 0.367% in diet, three weeks (control 3.88 ± 0.29)) was 3.50 ± 0.26 g. For the same compound, the “% W vs Control Day 28” value ([5]; 0.4% in diet) was -18.6%, the “FOOD CONSUMPTION” value ([5]; 0.4% in diet) was 22.0 g/day and the “BODY WEIGHT GAINS” value ([5]; 0.4% in diet, Day 7 (control 56)) was 44. The “BODY WEIGHT GAINS” value ([5]; 0.4% in diet, Day 14 (control 109)) was 89, the “BODY WEIGHT GAINS” value ([5]; 0.4% in diet, Day 21 (control 145)) was 117 and the “BODY WEIGHT GAINS” value ([5]; 0.4% in diet, Day 28 (control 183)) was 149. For the same compound, the “% W vs Control Day 28” value ([5]; 0.8% in diet) was -21.3%, the “FOOD CONSUMPTION” value ([5]; 0.8% in diet) was 20.6 g/day and the “BODY WEIGHT GAINS” value ([5]; 0.8% in diet, Day 7 (control 56)) was 34. The “BODY WEIGHT GAINS” value ([5]; 0.8% in diet, Day 14 (control 109)) was 83, the “BODY WEIGHT GAINS” value ([5]; 0.8% in diet, Day 21 (control 145)) was 112 and the “BODY WEIGHT GAINS” value ([5]; 0.8% in diet, Day 28 (control 183)) was 144. For the same compound, the “effectiveness in reducing weight gain compared with alpha-ET” value ([5]; at all concentrations tested) was “almost twice as effective as alpha-ET”.
